Earlier results on two substances are cited in patent US20200188436A1, “Compositions and Methods for Cancer Immunotherapy” (The UAB Research Foundation, priority 2016, published 2020).

The subject of data set [1] is diffuse large B-cell lymphoma (DLBCL). The settings on record: phase II, DLBCL after autologous stem cell transplantation; preliminary results.
For another data set, the system named is recurrent multifocal GBM. The settings on record: two pediatric patients, refractory to standard therapies, single agent.

“CT-011: humanized IgG1 monoclonal antibody against PD-1”: in data set [1], the subjects alive is given as 82% and the “subjects progression-free at the end of the follow-up period” value is 70%.

Turning to “nivolumab: immune checkpoint inhibitor, anti-PD1 antibody”, the clinical response result with recurrent multifocal GBM is “remarkable and durable responses”.
